In one series the target is T1, Activin receptor type-1 (Homo sapiens, UniProt Q04771).
T1 sequence (Q04771 whole entry): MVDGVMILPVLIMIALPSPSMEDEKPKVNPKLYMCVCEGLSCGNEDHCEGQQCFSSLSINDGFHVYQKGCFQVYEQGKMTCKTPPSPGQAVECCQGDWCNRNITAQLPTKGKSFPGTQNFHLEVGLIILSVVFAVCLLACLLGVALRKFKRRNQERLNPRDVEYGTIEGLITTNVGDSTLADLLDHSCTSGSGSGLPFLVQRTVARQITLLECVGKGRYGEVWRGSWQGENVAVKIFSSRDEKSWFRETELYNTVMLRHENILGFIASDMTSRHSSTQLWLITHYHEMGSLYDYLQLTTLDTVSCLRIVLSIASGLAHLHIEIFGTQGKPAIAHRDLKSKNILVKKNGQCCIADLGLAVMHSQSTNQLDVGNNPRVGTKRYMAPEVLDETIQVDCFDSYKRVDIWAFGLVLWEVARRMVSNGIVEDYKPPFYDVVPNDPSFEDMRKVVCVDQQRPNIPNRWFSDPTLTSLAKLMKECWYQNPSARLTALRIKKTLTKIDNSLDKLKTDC
Briefly: Competitive displacement of PBI-6908 from nanoluciferase-fused ALK2 (unknown origin) expressed in HEK293 cells incubated for 2 hrs by NanoBRET NanoGlo substrate based NanoBRET assay. Type of series: cell-based. (In general: In BRET a luciferase serves as donor, and the signal depends on an acceptor being close.)

Series [1] in a line: Ratio of drug level in brain to plasma in CB17 SCID mouse at 10 mg/kg, po measured at 4 h. As to conditions: brain and plasma, read-out: BPR. It counts as ADME, organism-based.
The target in series [2] is T2, TGF-beta receptor type-1 (Homo sapiens, UniProt P36897).
T2 sequence (P36897 whole entry): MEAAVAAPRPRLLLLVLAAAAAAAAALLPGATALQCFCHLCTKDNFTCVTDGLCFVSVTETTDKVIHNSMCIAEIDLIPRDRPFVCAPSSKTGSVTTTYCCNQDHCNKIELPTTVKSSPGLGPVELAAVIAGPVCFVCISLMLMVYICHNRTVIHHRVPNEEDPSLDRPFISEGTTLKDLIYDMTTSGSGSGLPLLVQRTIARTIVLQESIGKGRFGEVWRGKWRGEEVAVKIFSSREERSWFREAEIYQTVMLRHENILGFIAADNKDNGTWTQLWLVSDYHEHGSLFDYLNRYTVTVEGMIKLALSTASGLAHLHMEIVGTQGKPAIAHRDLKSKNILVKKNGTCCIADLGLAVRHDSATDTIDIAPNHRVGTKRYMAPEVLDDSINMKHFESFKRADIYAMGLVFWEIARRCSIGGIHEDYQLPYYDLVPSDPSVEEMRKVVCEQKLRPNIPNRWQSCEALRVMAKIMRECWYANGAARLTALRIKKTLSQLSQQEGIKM
Briefly: Inhibition of recombinant human ALK5 expressed in HEK293 cells transfected with CAGA-luciferase and Renilla luciferase reporter after 24 hrs by dual luciferase reporter assay. Type of series: cell-based. For orientation: In a reporter assay the amount or activity of a reporter protein is the signal.

In series [3] the target is T2, TGF-beta receptor type-1. Briefly: Inhibition of human ALK5 using casein as substrate in presence of [gamma-33P]-ATP by radiometric hotspot assay. It counts as ADME.
Series [4] can be described thus: Drug concentration in CB17 SCID mouse brain at 100 mg/kg after 0.25 to 24 hrs. Type of series: ADME, organism-based. The settings on record: in vivo, read-out: Drug uptake.
Series [5] can be described thus: Toxicity in C57BL/6 mouse assessed as gross pathology at 50 mg/kg, po QD administered for 5 days measured after 24 hrs relative to control. It counts as organism-based. As to conditions: in vivo.
Series [6] is described as follows: Drug level in CD-1 mouse brain at 1 mg/kg, iv measured at 2 hrs. Type of series: ADME, organism-based. The settings on record: read-out: Drug uptake.
The target of a further series is Cytochrome P450 3A4 (Homo sapiens, UniProt P08684). Briefly: Inhibition of CYP3A4 in human liver microsomes using testosterone as substrate incubated for 10 mins in presence of NADPH by LC/MS/MS analysis. It counts as ADME. Background: Microsomes from liver hold many membrane-bound enzymes, among them those of drug oxidation.
Sequence of Cytochrome P450 3A4 (P08684 whole entry): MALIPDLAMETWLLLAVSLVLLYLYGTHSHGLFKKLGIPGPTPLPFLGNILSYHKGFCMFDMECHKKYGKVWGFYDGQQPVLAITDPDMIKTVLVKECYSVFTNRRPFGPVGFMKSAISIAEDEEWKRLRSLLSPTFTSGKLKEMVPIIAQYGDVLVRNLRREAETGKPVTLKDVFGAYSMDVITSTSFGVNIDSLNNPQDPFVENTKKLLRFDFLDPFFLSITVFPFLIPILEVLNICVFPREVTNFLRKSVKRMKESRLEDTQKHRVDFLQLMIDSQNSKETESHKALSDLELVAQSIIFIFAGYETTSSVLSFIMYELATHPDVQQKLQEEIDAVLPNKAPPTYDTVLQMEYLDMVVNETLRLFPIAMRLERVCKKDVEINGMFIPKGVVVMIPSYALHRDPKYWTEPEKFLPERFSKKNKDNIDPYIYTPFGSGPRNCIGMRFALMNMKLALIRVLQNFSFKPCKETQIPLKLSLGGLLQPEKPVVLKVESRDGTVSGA
Series [7] can be described thus: Toxicity in C57BL/6 mouse assessed as gross pathology at 25 mg/kg, po QD administered for 5 days measured after 24 hrs relative to control. Type of series: organism-based. The settings on record: in vivo.
Series [8] can be described thus: Toxicity in C57BL/6 mouse assessed as mouse death at 25 mg/kg, po BID administered for 5 days measured after 24 hrs. Type of series: organism-based. The settings on record: in vivo.
The target in the next series is Cytochrome P450 2C8 (Homo sapiens, UniProt P10632). Nature of the series: Inhibition of CYP2C8 in human liver microsomes using paclitaxel as substrate incubated for 20 mins in presence of NADPH by LC/MS/MS analysis. It counts as ADME.
Sequence of Cytochrome P450 2C8 (P10632 whole entry): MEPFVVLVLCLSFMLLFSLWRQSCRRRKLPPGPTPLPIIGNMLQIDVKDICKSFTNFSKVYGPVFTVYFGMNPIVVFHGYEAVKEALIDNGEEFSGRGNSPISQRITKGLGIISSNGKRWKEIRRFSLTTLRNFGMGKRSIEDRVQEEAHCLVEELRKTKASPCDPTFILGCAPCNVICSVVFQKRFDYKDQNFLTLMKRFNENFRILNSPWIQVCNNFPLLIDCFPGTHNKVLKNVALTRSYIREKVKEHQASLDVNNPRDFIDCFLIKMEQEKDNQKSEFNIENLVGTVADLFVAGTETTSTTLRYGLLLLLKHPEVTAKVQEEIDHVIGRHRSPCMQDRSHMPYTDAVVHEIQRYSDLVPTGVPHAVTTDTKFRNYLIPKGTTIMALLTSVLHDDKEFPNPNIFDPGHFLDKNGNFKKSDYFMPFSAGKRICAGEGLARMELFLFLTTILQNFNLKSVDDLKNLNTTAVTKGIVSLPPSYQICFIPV
Series [9] can be described thus: Mutagenicity in Salmonella typhimurium by mini Ames test. As to conditions: salmonella enterica subsp. enterica serovar typhimurium. It counts as toxicity.
Series [10] addresses Alpha-1A adrenergic receptor (Rattus norvegicus, UniProt P43140). Nature of the series: Inhibition of rat adrenergic alpha1A receptor at 10 uM relative to control.
Series [11] can be described thus: Ratio of drug level in brain to plasma in CD-1 mouse at 10 mg/kg, po measured at 2 hrs. Type of series: ADME, organism-based. As to conditions: brain and plasma, read-out: BPR.
The nature of series [12]: Toxicity in C57BL/6 mouse assessed as body weight loss at 25 mg/kg, po BID administered for 5 days measured after 24 hrs relative to control. Type of series: organism-based. As to conditions: in vivo.
A short description of series [13]: Toxicity in C57BL/6 mouse assessed as gross pathology at 100 mg/kg, po QD administered for 5 days measured after 24 hrs relative to control. Type of series: organism-based. As to conditions: in vivo.
Another series has as its target Cytochrome P450 2B6 (Homo sapiens, UniProt P20813). Briefly: Inhibition of CYP2B6 in human liver microsomes using bupropion as substrate incubated for 20 mins in presence of NADPH by LC/MS/MS analysis. It counts as ADME.
Series [14] can be described thus: Toxicity in C57BL/6 mouse assessed as mouse death at 50 mg/kg, po QD administered for 5 days measured after 24 hrs. It counts as organism-based. As to conditions: in vivo.
Another series concerns the target Cytochrome P450 2D6 (Homo sapiens, UniProt P10635). Nature of the series: Inhibition of CYP2D6 in human liver microsomes using dextromethorphan as substrate incubated for 20 mins in presence of NADPH by LC/MS/MS analysis. It counts as ADME.
A further series has as its system sodium channel site 2. Briefly: Inhibition of rat sodium channel site2 at 10 uM incubated for 60 mins by scintillation counting method.
A further series deals with hERG (KCNH2) (Homo sapiens, UniProt Q12809). Briefly: Displacement of [3H]dofetilide from recombinant human ERG at 10 uM after 60 mins by scintillation counting analysis. As to conditions: probe [3H]dofetilide.
Sequence of hERG (KCNH2) (Q12809 whole entry): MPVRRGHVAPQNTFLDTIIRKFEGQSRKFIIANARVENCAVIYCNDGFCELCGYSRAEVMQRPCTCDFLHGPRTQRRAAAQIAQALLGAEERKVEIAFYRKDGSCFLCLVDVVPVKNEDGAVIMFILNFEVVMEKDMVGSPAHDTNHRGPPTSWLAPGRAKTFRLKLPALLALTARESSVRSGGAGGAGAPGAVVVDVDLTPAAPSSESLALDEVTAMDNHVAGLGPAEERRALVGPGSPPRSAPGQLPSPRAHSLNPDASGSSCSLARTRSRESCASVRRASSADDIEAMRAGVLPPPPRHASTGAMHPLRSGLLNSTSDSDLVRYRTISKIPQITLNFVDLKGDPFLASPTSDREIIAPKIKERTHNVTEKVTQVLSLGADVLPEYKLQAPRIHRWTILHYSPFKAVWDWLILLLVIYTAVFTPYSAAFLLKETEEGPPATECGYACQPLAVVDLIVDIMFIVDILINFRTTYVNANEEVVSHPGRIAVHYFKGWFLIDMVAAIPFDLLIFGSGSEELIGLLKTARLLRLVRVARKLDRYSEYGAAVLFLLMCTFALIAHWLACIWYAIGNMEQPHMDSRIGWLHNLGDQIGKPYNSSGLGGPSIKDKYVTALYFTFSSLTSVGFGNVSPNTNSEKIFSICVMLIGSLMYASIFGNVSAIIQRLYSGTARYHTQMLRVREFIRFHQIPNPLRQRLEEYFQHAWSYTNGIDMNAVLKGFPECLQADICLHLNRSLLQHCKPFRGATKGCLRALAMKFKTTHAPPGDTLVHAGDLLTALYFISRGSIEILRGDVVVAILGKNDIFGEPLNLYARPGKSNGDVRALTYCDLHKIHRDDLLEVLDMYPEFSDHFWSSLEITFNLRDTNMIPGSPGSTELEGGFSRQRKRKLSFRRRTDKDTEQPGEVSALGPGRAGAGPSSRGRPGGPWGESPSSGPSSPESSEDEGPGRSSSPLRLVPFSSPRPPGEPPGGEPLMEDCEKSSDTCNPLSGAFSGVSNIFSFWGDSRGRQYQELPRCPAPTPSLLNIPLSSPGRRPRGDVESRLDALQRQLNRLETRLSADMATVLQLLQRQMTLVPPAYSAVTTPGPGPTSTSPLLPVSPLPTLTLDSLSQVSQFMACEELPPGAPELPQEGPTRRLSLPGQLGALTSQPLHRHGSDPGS
The target of series [15] is Serine/threonine-protein kinase SIK2 (Homo sapiens, UniProt Q9H0K1). Nature of the series: Inhibition of SIK2 (unknown origin).
Another series concerns the target Cytochrome P450 1A2 (Homo sapiens, UniProt P05177). Nature of the series: Inhibition of CYP1A2 in human liver microsomes using phenacetin as substrate incubated for 20 mins in presence of NADPH by LC/MS/MS analysis. Type of series: ADME.
Series [16] in a line: Toxicity in C57BL/6 mouse assessed as body weight loss at 25 mg/kg, po QD administered for 5 days measured after 24 hrs relative to control. Type of series: organism-based. The settings on record: in vivo.
Series [17] is described as follows: Ratio of drug level in brain to plasma in CB17 SCID mouse at 25 mg/kg, po measured at 4 h. Type of series: ADME, organism-based. As to conditions: read-out: BPR.
A short description of series [18]: Toxicity in C57BL/6 mouse assessed as gross pathology at 25 mg/kg, po BID administered for 5 days measured after 24 hrs relative to control. It counts as organism-based. The settings on record: in vivo.
For a further series, the target named is Cannabinoid receptor 1 (Homo sapiens, UniProt P21554). Briefly: Inhibition of recombinant human CB1 incubated for 60 mins by scintillation counting method.
Sequence of Cannabinoid receptor 1 (P21554 whole entry): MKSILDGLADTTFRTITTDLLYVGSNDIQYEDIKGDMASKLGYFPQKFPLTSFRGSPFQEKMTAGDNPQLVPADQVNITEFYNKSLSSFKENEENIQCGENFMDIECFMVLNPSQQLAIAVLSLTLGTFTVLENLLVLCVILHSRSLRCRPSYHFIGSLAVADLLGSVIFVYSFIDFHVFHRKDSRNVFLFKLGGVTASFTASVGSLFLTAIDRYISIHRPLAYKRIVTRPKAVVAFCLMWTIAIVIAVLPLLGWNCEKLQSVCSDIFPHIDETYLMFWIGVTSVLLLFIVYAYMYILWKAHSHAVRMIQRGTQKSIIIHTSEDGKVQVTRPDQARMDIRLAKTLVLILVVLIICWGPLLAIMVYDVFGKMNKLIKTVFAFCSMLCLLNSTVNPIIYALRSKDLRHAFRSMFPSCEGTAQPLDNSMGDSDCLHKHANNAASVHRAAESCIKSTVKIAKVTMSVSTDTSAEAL

These results are taken from ChEMBL document CHEMBL4622974, “Leveraging an Open Science Drug Discovery Model to Develop CNS-Penetrant ALK2 Inhibitors for the Treatment of Diffuse Intrinsic Pontine Glioma” (J Med Chem, 2020).

By IC50 is commonly meant the concentration that inhibits the measured activity by half. For orientation: inhibition means how much of the control response was suppressed.

Sequence of Alpha-1A adrenergic receptor (P43140 whole entry): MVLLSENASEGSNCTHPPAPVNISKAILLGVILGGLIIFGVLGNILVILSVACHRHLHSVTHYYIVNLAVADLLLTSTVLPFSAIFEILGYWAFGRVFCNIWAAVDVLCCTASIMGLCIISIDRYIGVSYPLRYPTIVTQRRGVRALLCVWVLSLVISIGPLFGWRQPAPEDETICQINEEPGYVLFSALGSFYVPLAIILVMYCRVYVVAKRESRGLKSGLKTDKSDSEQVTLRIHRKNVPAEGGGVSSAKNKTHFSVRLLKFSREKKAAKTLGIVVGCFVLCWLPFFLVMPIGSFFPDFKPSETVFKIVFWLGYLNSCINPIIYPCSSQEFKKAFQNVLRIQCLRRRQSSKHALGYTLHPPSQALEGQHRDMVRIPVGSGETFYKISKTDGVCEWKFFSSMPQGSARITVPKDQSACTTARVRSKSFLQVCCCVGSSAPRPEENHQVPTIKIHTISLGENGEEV
Sequence of Cytochrome P450 2D6 (P10635 whole entry): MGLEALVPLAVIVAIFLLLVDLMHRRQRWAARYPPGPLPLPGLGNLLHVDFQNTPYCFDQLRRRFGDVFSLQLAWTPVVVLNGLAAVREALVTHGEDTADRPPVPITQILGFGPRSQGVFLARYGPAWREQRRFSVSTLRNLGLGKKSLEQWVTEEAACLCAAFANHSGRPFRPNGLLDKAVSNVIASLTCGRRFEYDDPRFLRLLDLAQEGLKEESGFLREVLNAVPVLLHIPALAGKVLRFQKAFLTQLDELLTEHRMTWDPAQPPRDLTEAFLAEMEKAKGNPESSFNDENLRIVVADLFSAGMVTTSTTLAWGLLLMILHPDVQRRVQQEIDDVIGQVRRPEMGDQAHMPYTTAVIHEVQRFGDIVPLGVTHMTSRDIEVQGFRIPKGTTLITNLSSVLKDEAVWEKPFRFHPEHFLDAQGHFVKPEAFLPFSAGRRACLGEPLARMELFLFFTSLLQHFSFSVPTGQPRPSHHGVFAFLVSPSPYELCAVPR
Sequence of Cytochrome P450 1A2 (P05177 whole entry): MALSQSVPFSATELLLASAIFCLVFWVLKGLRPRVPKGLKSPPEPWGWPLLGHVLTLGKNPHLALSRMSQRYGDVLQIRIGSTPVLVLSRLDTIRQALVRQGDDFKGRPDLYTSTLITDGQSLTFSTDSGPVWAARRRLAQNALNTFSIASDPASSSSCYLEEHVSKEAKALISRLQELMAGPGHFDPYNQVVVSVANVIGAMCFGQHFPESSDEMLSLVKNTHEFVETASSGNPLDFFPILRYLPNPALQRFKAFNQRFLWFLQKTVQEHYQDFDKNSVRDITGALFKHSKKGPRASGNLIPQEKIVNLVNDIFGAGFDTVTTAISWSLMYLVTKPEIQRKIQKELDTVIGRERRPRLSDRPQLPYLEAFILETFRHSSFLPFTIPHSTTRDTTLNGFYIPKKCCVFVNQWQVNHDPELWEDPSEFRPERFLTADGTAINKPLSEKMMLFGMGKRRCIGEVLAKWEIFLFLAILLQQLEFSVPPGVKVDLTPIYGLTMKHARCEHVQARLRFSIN
Sequence of Cytochrome P450 2B6 (P20813 whole entry): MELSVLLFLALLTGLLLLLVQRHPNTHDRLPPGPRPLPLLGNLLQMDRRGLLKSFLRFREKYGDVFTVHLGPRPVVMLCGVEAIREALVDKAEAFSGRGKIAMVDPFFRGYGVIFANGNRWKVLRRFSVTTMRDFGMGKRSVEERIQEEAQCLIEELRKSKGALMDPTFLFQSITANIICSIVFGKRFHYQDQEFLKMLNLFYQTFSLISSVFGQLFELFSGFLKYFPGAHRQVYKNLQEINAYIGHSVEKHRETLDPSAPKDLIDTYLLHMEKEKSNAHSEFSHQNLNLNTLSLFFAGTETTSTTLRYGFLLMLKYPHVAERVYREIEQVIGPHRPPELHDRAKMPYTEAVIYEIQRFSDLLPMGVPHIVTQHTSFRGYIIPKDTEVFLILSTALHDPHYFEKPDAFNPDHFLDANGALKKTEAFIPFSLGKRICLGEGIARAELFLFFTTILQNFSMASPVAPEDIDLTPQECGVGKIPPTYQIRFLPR

With `COc1cc(-c2cncc(-c3ccc(C4CCN(C)CC4)cc3)c2C)cc(OC)c1OC`, the IC50 on Activin receptor type-1 was 0.029 µM; at TGF-beta receptor type-1 [2], 3.33 µM; on TGF-beta receptor type-1 [3] it was > 5 µM. Moreover, the Kp at 4 h in series [1] worked out at 0.82. In addition, in series [4], the concentration turned out to be 39 µM.
`COc1cc(-c2cncc(-c3ccc(N4CCNCC4)cc3)c2C)cc(OC)c1OC`: the Activity entry in [5], in series [7], in series [8], in series [9], in [12] and in [13] was “Non-Toxic” throughout. Besides, the Activity entry in series [14], in [16] and in series [18] was “Non-Toxic” each time. In series [6], the concentration at 2 h was 0.123 µM. Besides, the IC50 was > 9 µM on Cytochrome P450 3A4; > 30 µM at Cytochrome P450 2C8; > 30 µM at Cytochrome P450 2B6; > 30 µM on Cytochrome P450 2D6; 0.336 to 0.924 µM in series [15]; > 30 µM on Cytochrome P450 1A2. The IC50 on Cannabinoid receptor 1 came out at 1.72 µM. Testing at 10 µM in [10] gave an inhibition of 65%. Also, the Kp at 2 h in [11] is 0.9. The values for the inhibition at 1 h, 10 µM with sodium channel site 2 and on hERG (KCNH2) were 72% and 69%, respectively. For the same compound, the Kp at 4 h in series [17] is 1.5.
